Read-outs that look alike come from different tables or passages of the source.

Here are results for eleven compounds from patent US20230295197A1, “STAT5 and STAT6 Degraders and Uses Thereof” (REGENTS OF THE UNIVERSITY OF MICHICAN, priority 2022, published 2023).

For the experiment, the target named is T1, STAT6 (Homo sapiens, UniProt P42226).
T1 construct: endogenous in cells; host or cells: MOLM-16, KU-812, SKNO1, MB231, L1236
T1 sequence (P42226 1-847): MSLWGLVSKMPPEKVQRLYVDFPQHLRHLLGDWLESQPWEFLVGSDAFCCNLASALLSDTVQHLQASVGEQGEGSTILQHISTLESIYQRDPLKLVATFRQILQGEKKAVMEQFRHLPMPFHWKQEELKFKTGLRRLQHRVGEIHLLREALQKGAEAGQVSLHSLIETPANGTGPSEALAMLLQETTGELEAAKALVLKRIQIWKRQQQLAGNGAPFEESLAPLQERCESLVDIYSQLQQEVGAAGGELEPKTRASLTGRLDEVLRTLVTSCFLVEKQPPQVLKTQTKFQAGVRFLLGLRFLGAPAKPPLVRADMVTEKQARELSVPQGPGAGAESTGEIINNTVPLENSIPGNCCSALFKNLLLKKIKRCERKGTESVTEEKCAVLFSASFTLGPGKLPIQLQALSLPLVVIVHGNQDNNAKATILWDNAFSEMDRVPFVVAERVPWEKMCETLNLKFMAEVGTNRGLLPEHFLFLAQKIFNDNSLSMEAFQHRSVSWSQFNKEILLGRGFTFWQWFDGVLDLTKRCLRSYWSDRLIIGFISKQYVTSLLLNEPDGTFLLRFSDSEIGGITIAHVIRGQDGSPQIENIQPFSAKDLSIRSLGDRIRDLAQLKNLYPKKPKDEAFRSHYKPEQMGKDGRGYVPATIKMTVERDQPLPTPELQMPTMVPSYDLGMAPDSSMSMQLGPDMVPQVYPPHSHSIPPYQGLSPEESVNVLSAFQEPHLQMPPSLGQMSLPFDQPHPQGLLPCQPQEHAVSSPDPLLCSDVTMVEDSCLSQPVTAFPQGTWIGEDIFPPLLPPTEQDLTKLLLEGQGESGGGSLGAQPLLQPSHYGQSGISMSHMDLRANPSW
The experiment in a line: Immunoblotting (Western blot) analysis of STAT6 degradation efficiency of degraders in treated cells. The format is cell-based. In short, it runs like this:
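About 1 million cells per point, grown in 10% FBS medium at 37 °C/5% CO2, were exposed to compound at the indicated concentrations and times, then lysed in RIPA buffer with protease and phosphatase inhibitors. Equal protein (20-40 μg) was resolved by SDS-PAGE, blotted to PVDF, and probed with anti-STAT5, anti-STAT6 and anti-GAPDH antibodies.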

Where [1] appears, read: MOLM-16 cells, class symbols, read-out: DC50 S6 MOLM-16.

As to `Cc1cc([C@H](C(=O)N2C[C@H](O)C[C@H]2C(=O)N[C@@H](CC(=O)NCCCCCCNC(=O)CO[C@@H]2C[C@@H](C(=O)N(C)c3ccc(Br)cc3)N(C(=O)[C@@H](NC(=O)c3cc4cc(C(F)(F)P(=O)(O)O)ccc4s3)C(C)(C)C)C2)c2ccc(-c3scnc3C)cc2)C(C)C)on1` [Compound 422, ((2-(((S)-1-((2S,4R)-2-((4-bromophenyl)(methyl)carbamoyl)-4-(2-((6-((S)-3-((2S,4R)-4-hydroxy-1-((R)-3-methyl-2-(3-methylisoxazol-5-yl)butanoyl)pyrrolidine-2-carboxamido)-3-(4-(4-methylthiazol-5-yl)phenyl)propanamido)hexyl)amino)-2-oxoethoxy)pyrrolidin-1-yl)-3,3-dimethyl-1-oxobutan-2-yl)carbamoyl)benzo[b]thiophen-5-yl)difluoromethyl)phosphonic acid], the DC50 under setting [1] is more than 10 µM.

As to `CC(C)(C)[C@H](NC(=O)c1cc2cc(C(F)(F)P(=O)(O)O)ccc2s1)C(=O)N1Cc2cc(OCC(=O)NCCCC#Cc3ccc4c(c3)C(=O)N(C3CCC(=O)NC3=O)C4=O)ccc2C[C@H]1C(=O)N1CCO[C@H](c2ccccc2)C1` (stereo partly drawn) [Compound 540, ((2-(((2S)-1-((3S)-7-(2-((5-(2-(2,6-dioxopiperidin-3-yl)-1,3-dioxoisoindolin-5-yl)pent-4-yn-1-yl)amino)-2-oxoethoxy)-3-((R)-2-phenylmorpholine-4-carbonyl)-3,4-dihydroisoquinolin-2(1H)-yl)-3,3-dimethyl-1-oxobutan-2-yl)carbamoyl)benzo[b]thiophen-5-yl)difluoromethyl)phosphonic acid], under setting [1], the DC50 was more than 10 µM.

Turning to `Cc1ncsc1-c1ccc([C@H](CC(=O)NCCCCCCCC(=O)N[C@H]2C[C@@H](C(=O)N3CCO[C@H](c4ccccc4)C3)N(C(=O)[C@@H](NC(=O)c3cc4cc(C(F)(F)P(=O)(O)O)ccc4s3)C(C)(C)C)C2)NC(=O)[C@@H]2C[C@@H](O)CN2C(=O)[C@@H](NC(=O)C2(F)CC2)C(C)(C)C)cc1` [Compound 570, (difluoro(2-(((S)-1-((2S,4S)-4-(8-((S)-3-((2S,4R)-1-((S)-2-(1-fluorocyclopropane-1-carboxamido)-3,3-dimethylbutanoyl)-4-hydroxypyrrolidine-2-carboxamido)-3-(4-(4-methylthiazol-5-yl)phenyl)propanamido)octanamido)-2-((R)-2-phenylmorpholine-4-carbonyl)pyrrolidin-1-yl)-3,3-dimethyl-1-oxobutan-2-yl)carbamoyl)benzo[b]thiophen-5-yl)methyl)phosphonic acid], under setting [1], the DC50 is more than 10 µM.

With `CC(C)(C)[C@H](NC(=O)c1cc2cc(C(F)(F)P(=O)(O)O)ccc2s1)C(=O)N1C[C@@H](OCC(=O)NCC#Cc2ccc3c(c2)C(=O)N(C2CCC(=O)NC2=O)C3=O)C[C@H]1C(=O)N1CCC[C@H](c2ccccc2)C1` (stereo partly drawn) [Compound 494, ((2-(((2S)-1-((2S,4S)-4-(2-((3-(2-(2,6-dioxopiperidin-3-yl)-1,3-dioxoisoindolin-5-yl)prop-2-yn-1-yl)amino)-2-oxoethoxy)-2-((R)-3-phenylpiperidine-1-carbonyl)pyrrolidin-1-yl)-3,3-dimethyl-1-oxobutan-2-yl)carbamoyl)benzo[b]thiophen-5-yl)difluoromethyl)phosphonic acid], the DC50 under setting [1] was more than 10 µM.

With `CC(C)(C)[C@H](NC(=O)c1cc2cc(C(F)(F)P(=O)(O)O)ccc2s1)C(=O)N1C[C@@H](OCC(=O)NCCCCCC#Cc2cccc3c2C(=O)N(C2CCC(=O)NC2=O)C3=O)C[C@H]1C(=O)N1CCO[C@H](c2ccccc2)C1` (stereo partly drawn) [Compound 487, ((2-(((2S)-1-((2S,4S)-4-(2-((7-(2-(2,6-dioxopiperidin-3-yl)-1,3-dioxoisoindolin-4-yl)hept-6-yn-1-yl)amino)-2-oxoethoxy)-2-((R)-2-phenylmorpholine-4-carbonyl)pyrrolidin-1-yl)-3,3-dimethyl-1-oxobutan-2-yl)carbamoyl)benzo[b]thiophen-5-yl)difluoromethyl)phosphonic acid], under setting [1], the DC50 was more than 10 µM.

As for `CC(C)(C)[C@H](NC(=O)c1cc2cc(C(F)(F)P(=O)(O)O)ccc2s1)C(=O)N1CCN(C(=O)CC(=O)NCCCCC#Cc2cccc3c2C(=O)N(C2CCC(=O)NC2=O)C3=O)C[C@H]1C(=O)N1CCO[C@H](c2ccccc2)C1` (stereo partly drawn) [Compound 513, ((2-(((2S)-1-((2S)-4-(3-((6-(2-(2,6-dioxopiperidin-3-yl)-1,3-dioxoisoindolin-4-yl)hex-5-yn-1-yl)amino)-3-oxopropanoyl)-2-((R)-2-phenylmorpholine-4-carbonyl)piperazin-1-yl)-3,3-dimethyl-1-oxobutan-2-yl)carbamoyl)benzo[b]thiophen-5-yl)difluoromethyl)phosphonic acid], under setting [1], the DC50 is more than 10 µM.

Regarding `CC(C)(C)[C@H](NC(=O)c1cc2cc(C(F)(F)P(=O)(O)O)ccc2s1)C(=O)N1CCN(C(=O)CC(=O)NCCCC#Cc2ccc3c(c2)C(=O)N(C2CCC(=O)NC2=O)C3=O)C[C@H]1C(=O)N1CCO[C@H](c2ccccc2)C1` (stereo partly drawn) [Compound 512, ((2-(((25)-1-((2S)-4-(3-((5-(2-(2,6-dioxopiperidin-3-yl)-1,3-dioxoisoindolin-5-yl)pent-4-yn-1-yl)amino)-3-oxopropanoyl)-2-((R)-2-phenylmorpholine-4-carbonyl)piperazin-1-yl)-3,3-dimethyl-1-oxobutan-2-yl)carbamoyl)benzo[b]thiophen-5-yl)difluoromethyl)phosphonic acid], the DC50 under setting [1] fell in the range of 0.1 to 1 µM.

Regarding `Cc1ncsc1-c1ccc([C@H](C)NC(=O)[C@@H]2C[C@@H](O)CN2C(=O)[C@@H](NC(=O)CCNC(=O)CO[C@H]2C[C@@H](C(=O)N3CCC[C@H](c4ccccc4)C3)N(C(=O)[C@@H](NC(=O)c3cc4cc(C(F)(F)P(=O)(O)O)ccc4s3)C(C)(C)C)C2)C(C)(C)C)cc1` [Compound 435, (difluoro(2-(((S)-1-((2S,4S)-4-(2-((3-(((S)-1-((2S,4R)-4-hydroxy-2-(((S)-1-(4-(4-methylthiazol-5-yl)phenyl)ethyl)carbamoyl)pyrrolidin-1-yl)-3,3-dimethyl-1-oxobutan-2-yl)amino)-3-oxopropyl)amino)-2-oxoethoxy)-2-((R)-3-phenylpiperidine-1-carbonyl)pyrrolidin-1-yl)-3,3-dimethyl-1-oxobutan-2-yl)carbamoyl)benzo[b]thiophen-5-yl)methyl)phosphonic acid], the DC50 (L1236 cells, read-out: DC50 S6 L1236) was more than 10 µM and the DC50 under setting [1] was more than 10 µM.

`Cc1ncsc1-c1ccc([C@H](CC(=O)NCCCCCCCCC(=O)N[C@H]2C[C@@H](C(=O)N3CCO[C@H](c4ccccc4)C3)N(C(=O)[C@@H](NC(=O)c3cc4cc(C(F)(F)P(=O)(O)O)ccc4s3)C(C)(C)C)C2)NC(=O)[C@@H]2C[C@@H](O)CN2C(=O)[C@@H](NC(=O)C2(F)CC2)C(C)(C)C)cc1` [Compound 571, (difluoro(2-(((S)-1-((2S,4S)-4-(9-((S)-3-((2S,4R)-1-((S)-2-(1-fluorocyclopropane-1-carboxamido)-3,3-dimethylbutanoyl)-4-hydroxypyrrolidine-2-carboxamido)-3-(4-(4-methylthiazol-5-yl)phenyl)propanamido)nonanamido)-2-((R)-2-phenylmorpholine-4-carbonyl)pyrrolidin-1-yl)-3,3-dimethyl-1-oxobutan-2-yl)carbamoyl)benzo[b]thiophen-5-yl)methyl)phosphonic acid]: the half-maximal degradation concentration (DC50) under setting [1] was more than 10 µM.

Consider `CC(C)(C)[C@H](NC(=O)c1cc2cc(C(F)(F)P(=O)(O)O)ccc2s1)C(=O)N1CCN(C(=O)CC(=O)NCCCCCC#Cc2ccc3c(c2)C(=O)N(C2CCC(=O)NC2=O)C3=O)C[C@H]1C(=O)N1CCO[C@H](c2ccccc2)C1` (stereo partly drawn) [Compound 516, ((2-(((2S)-1-((2S)-4-(3-((7-(2-(2,6-dioxopiperidin-3-yl)-1,3-dioxoisoindolin-5-yl)hept-6-yn-1-yl)amino)-3-oxopropanoyl)-2-((R)-2-phenylmorpholine-4-carbonyl)piperazin-1-yl)-3,3-dimethyl-1-oxobutan-2-yl)carbamoyl)benzo[b]thiophen-5-yl)difluoromethyl)phosphonic acid], for which the DC50 under setting [1] is more than 10 µM.

`CC(C)(C)[C@H](NC(=O)c1cc2cc(C(F)(F)P(=O)(O)O)ccc2s1)C(=O)N1CCN(C(=O)CC(=O)NCCCCC#Cc2cccc3c2C(=O)N(C2CCC(=O)NC2=O)C3=O)C[C@H]1C(=O)N1CCC[C@H](c2ccccc2)C1` (stereo partly drawn) [Compound 527, ((2-(((2S)-1-((2S)-4-(3-((6-(2-(2,6-dioxopiperidin-3-yl)-1,3-dioxoisoindolin-4-yl)hex-5-yn-1-yl)amino)-3-oxopropanoyl)-2-((R)-3-phenylpiperidine-1-carbonyl)piperazin-1-yl)-3,3-dimethyl-1-oxobutan-2-yl)carbamoyl)benzo[b]thiophen-5-yl)difluoromethyl)phosphonic acid]: the DC50 under setting [1] is more than 10 µM.
